Data on one compound can be found in patent US20170182047A9, “Post-Translational Regulation of Catalytic Activities of Cytochrome P450 46A1 and Uses Thereof” (The Board of Regents of the University of Texas System, priority 2007, published 2017).

Where two headings read alike, the source gives them in different places.

The target of one assay is full-length CYP46A1 (Homo sapiens, UniProt Q9Y6A2). Nature of the assay: Inhibition/stimulation of cholesterol hydroxylase activity at fixed 43 μM test compound. The note with it: 2.7 μM cholesterol, 43 μM compound; FIG. 4A-4C. The class given is biochemical.
Sequence of full-length CYP46A1 (Q9Y6A2 whole entry): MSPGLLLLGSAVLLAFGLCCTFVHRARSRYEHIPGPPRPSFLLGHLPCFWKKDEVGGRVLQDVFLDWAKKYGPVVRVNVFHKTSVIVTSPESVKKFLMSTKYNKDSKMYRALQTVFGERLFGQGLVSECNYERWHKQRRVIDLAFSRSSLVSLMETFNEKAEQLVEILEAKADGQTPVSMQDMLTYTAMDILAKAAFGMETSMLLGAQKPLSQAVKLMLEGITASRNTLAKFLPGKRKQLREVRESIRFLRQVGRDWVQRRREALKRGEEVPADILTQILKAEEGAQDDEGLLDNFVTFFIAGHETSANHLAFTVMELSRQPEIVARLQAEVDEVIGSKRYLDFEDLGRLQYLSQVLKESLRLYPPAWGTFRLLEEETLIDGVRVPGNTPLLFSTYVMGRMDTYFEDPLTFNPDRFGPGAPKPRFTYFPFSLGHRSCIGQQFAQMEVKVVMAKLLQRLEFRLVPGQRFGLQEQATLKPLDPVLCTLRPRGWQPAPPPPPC
Assay [1] has as its target T1, CYP46A1 (Homo sapiens, UniProt Q9Y6A2). The assay can be described thus: In vitro IC50 and Ki for CYP46A1-catalysed hydroxylation. The class given is biochemical. Set-up: Recombinant full-length human CYPs 46A1 and 27A1 and bovine CYP11A1 were expressed and purified; made in house. The conditions noted are these: for IC50: 5.4 μM cholesterol. As to the method: Cholesterol hydroxylation by CYP46A1 was assayed for 20 min at 37° C. in 1 ml of 50 mM KPi, pH 7.2, containing 100 mM NaCl, 0.02% Cymal 6, 40 μg dilauroylglycerol-3-phosphatidylcholine and 2U of catalase. […] The enzymatic reaction was initiated by NADPH (final 1 mM) and terminated by vortexing with 2 ml of CH2Cl2. The organic phase was isolated, evaporated, dissolved in methanol, and subjected to HPLC. […] In addition, the Ki for cholesterol 24-hydroxylation was estimated assuming a model of competitive inhibition.

Assay [2] addresses T1, CYP46A1. Nature of the assay: Spectral binding assay of antifungal azoles. Set-up: Recombinant full-length human CYPs 46A1 and 27A1 and bovine CYP11A1 were expressed and purified; made in house. The conditions noted are these: 0.3 μM purified P450; read-out: estimated Kd. As for the experimental part:
(§1) Titrations of CYP46A1 were carried out in 50 mM potassium phosphate buffer (KPi), pH 7.2, containing 100 mM NaCl and 0.02% Cymal 6. CYPs 11A1 and 27A1 were in 50 mM KPi without any additives. Antifungal drugs were added from 0.2-5 mM stocks in 50% methanol. The apparent Kd and maximal absorbance change were estimated by non-linear least squares fitting using the quadratic form of the single-site binding equation (9).

In a further assay the target is T2, CYP27A1 (Homo sapiens, UniProt Q02318).
T2 construct: Recombinant full-length human CYPs 46A1 and 27A1 and bovine CYP11A1 were expressed and purified; made in house
T2 sequence (Q02318 34-531): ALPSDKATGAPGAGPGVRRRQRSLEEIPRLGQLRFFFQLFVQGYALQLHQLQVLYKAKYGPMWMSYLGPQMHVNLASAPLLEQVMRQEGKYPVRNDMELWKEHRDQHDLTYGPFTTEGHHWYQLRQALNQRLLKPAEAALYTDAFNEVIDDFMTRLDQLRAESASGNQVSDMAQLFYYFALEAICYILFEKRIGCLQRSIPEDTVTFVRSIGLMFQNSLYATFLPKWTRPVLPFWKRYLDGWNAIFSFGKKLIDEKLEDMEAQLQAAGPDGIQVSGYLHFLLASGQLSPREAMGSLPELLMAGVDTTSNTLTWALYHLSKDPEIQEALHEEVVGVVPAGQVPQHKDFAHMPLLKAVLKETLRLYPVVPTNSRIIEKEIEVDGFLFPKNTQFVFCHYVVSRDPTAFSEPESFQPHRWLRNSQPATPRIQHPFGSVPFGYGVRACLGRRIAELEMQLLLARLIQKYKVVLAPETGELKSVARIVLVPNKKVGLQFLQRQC
The assay can be described thus: Spectral binding assay of antifungal azoles. The conditions noted are these: up to 100 μM. As to the method:
as §1

For assay [3], the system named is Cholesterol 24S-Hydroxylase (CYP46A1). Nature of the assay: Brain sterol levels in mice after intraperitoneal voriconazole. The class given is in vivo, C57/B6 J mice. As to the method:
The mice were sacrificed by cervical dislocation.
Lipids were extracted from the brain according to Folch with some modifications. Approximately 10 mg of brain tissue was added to 1 ml of homogenization buffer (5 mM EDTA, 50 μg/ml butylated hydroxytoluene in phosphate-buffered saline, pH 7,4) in a clean glass tube, and the tissue was disrupted using a polytron homogeniser. Three milliliters of chloroform:methanol (2:1, v:v) were added to the homogenate and the vials were mixed by vortexing. Samples were centrifuged at 10,000 g for 10 min. The organic phase was transferred to a new vial. The aqueous phase was re-extracted as described previously three more times. The pooled organic phase was dried under stream of argon gas, and chloroform:methanol (2:1, v:v) added to the dried samples to achieve suitable concentration.

The next assay concerns the target T3, CYP11A1 (Bos taurus, UniProt P00189).
T3 construct: Recombinant full-length human CYPs 46A1 and 27A1 and bovine CYP11A1 were expressed and purified; made in house
T3 sequence (P00189 40-520): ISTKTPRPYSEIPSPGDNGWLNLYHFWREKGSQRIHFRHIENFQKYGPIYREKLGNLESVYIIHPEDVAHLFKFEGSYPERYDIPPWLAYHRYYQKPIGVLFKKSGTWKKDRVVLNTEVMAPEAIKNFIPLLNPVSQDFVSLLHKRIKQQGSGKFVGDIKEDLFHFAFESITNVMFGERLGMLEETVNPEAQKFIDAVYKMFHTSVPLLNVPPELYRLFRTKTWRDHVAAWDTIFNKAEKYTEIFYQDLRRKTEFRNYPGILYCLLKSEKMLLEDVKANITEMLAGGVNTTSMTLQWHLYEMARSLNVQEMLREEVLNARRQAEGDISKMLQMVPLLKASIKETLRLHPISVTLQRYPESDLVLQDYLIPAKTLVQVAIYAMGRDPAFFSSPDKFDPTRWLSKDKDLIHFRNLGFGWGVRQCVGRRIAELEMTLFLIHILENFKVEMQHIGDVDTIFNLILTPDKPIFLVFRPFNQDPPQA
The assay can be described thus: Spectral binding assay of antifungal azoles. Further details: species or system bovine. As to the method: as §1

For assay [4], the system named is Cholesterol 24S-Hydroxylase (CYP46A1). The assay can be described thus: Plasma oxysterol levels in voriconazole-treated mice.
Description: Seven week old male C57/B6 J mice from Charles River were injected intraperitoneally with voriconazole (60 mg/kg or 75 mg/kg, corresponding to 0.6 and 0.75 ml, respectively, of the drug solution). The control mice were injected with the same solutions containing no voriconazole. The mice were sacrificed by cervical dislocation. Brain and liver were collected, snap frozen in liquid nitrogen and stored at −80° C.
The mark [5] stands for this setting: 60 mg/kg i.p. once a day for 5 days.

T1 sequence (Q9Y6A2 whole entry): as the sequence (Q9Y6A2 whole entry) above

Take `C[C@@H](c1ncncc1F)[C@](O)(Cn1cncn1)c1ccc(F)cc1F` [voriconazole]: the “inhibition of cholesterol hydroxylation (in words)” value against full-length CYP46A1 is given as “significant inhibition”. Also, the IC50 at CYP46A1 [1] (read-out: IC50 for cholesterol 24-hydroxylation) came to 22 nM. For the same compound, the Ki at CYP46A1 [1] (estimated, competitive inhibition, cholesterol equal to the Km, read-out: Ki for cholesterol 24-hydroxylation) is 11 nM. The IC50 at CYP46A1 [1] (read-out: IC50 for 25- and 27-hydroxylations of 24S-hydroxycholesterol) worked out at 47 nM. Also, the Kd on CYP46A1 [2] was 50 nM. Also, the spectral response result on CYP27A1 was “only a very weak spectral shift was observed”. In addition, in assay [3] (setting [5]), the “effect on the levels of 27-hydroxycholesterol in the brain” value is “no effect” and the “effect on the levels of cholesterol in the brain” value is recorded as “no effect”. Also, the “level of lathosterol in the brain” value in assay [3] (60 mg/kg i.p. once a day for 5 days, p<0.05) is given as “significantly reduced”. In assay [3] (60 mg/kg i.p. once a day for 5 days, p=0.03), the “reduction in the levels of 24S-hydroxycholesterol in the brain” value stood at 37%. Also, in assay [3] (different doses (60 or 75 mg/kg i.p.), six hours after the injection), the “levels of 24S-hydroxycholesterol in the brain” value is “appeared to reduce the levels of 24S-hydroxycholesterol”. For the same compound, in assay [3] (single 60 mg/kg i.p., 2 hours), the “effect on levels of lathosterol in the brain” value is on record as “no significant effect” and the “effect on levels of total cholesterol in the brain” value was “no significant effect”. The “reduction of levels of 24S-hydroxycholesterol in the brain” value in assay [3] (single 60 mg/kg i.p., 2 hours, not statistically significant (p>0.05)) came out at 20%. Moreover, in assay [3] (voriconazole-treated mice (controls 0.14+0.05)), the “brain levels of dehydrolanosterol” value is reported as 1.9+0.7 ng/mg tissue. In addition, in assay [3] (voriconazole-treated mice (controls 2.2+0.8), p=0.05), the “brain levels of squalene” value is 1.7+0.6 ng/mg tissue. For the same compound, in assay [3] (voriconazole-treated mice (controls 6.1+2.0), p<0.001), the “brain levels of lanosterol” value is recorded as 27+10 ng/mg tissue. For the same compound, the Kd on CYP11A1 (0.3 μM purified P450, read-out: apparent Kd) was found to be 4800 nM. In addition, the “binding weaker than that to CYP46A1” value at CYP11A1 (CYP11A1 vs CYP46A1) is on record as around 100 fold. The “plasma concentration of 24S-hydroxycholesterol” value in assay [4] (pool of plasma, voriconazole-treated mice (control 18.8)) came to 13.2 ng/mL. The “effect on plasma level of 27-hydroxycholesterol” value in assay [4] (voriconazole-treated mice) is given as “not significantly affected”. In addition, the “plasma level of 27-hydroxycholesterol” value in assay [4] (voriconazole-treated mice (controls 52)) is on record as 46 ng/mL. For the same compound, the “suppression of plasma levels of 24S-hydroxycholesterol” value in assay [4] (vs control pool) is “about 30%”.

Broadly, the IC50 is the midpoint of a concentration-inhibition curve. For orientation: Ki means a dissociation constant, usually derived from enzyme kinetics or from competition with a known ligand.
